Test results as given in patent US6960300B2, “Process for preparing water soluble diterpenes and their applications” (Sami Labs Limited, priority 2003, dated 2005).
Values after ≈ are worked out from the molar mass of the structure shown.

Key:
[1] = Solubility of Forskolin / Isoforskolin in water containing cyclodextrin (HPLC of filtered solution); format: physicochemical
Method: To solubilize Forskolin using cyclodextrins, the chosen cyclodextrin and Forskolin are mixed in water in specific proportions. The aqueous solution is filtered to remove any undissoved particles to obtain a clear aqueous solution of Forskolin in water.
Forskolin (98.5% assay, 25 mg) was added to 1 ml water containing in the dissolved state 500 mg Hydroxy propyl β cyclodextrin, HPBCD, (˜50%) Suspension was agitated at 75 RPM in an isothermal shaker for 60 hours at temperature ˜30° C.
Forskolin (98.5% assay, 50 mg) was added to 1 ml water containing 500 mg Hydroxy propyl γ-cyclodextrin in the dissolved state. (HPGCD) (˜50%). Suspension was agitated at 75 RPM in an isothermal shaker for 60 hours at temperature ˜30° C.
Experiments were performed by “changing” the crystallinity of Forskolin by recrystallizing from methylene chloride and from ethyl acetate. Resulting “amorphous” Forskolin was used for complexation with Hydroxyropyl γ-cyclodextrin HPGCD. Forskolin (29.3 mg) recrystallized with methylene dichloride (Forskolin assay 99.0%) was added to 3 ml water containing 1.5 gram Hydroxy propyl γ-cyclodextrin, HPGCD (˜50%). Suspension was agitated at 75 RPM in an isothermal shaker for 160 hour at temperature 30° C.
Forskolin (30.3 mg) recrystallized with ethyl acetate (Forskolin assay 98.8%) was added to 3 ml water containing 1.5 gram Hydroxy propyl γ-cyclodextrin, HPGCD (˜50%). Suspension was agitated at 75 RPM in an isothermal shaker for 160 hour at temperature 30° C.
Forskolin (98.5% assay, 330 mg) was added to 10 ml water containing 4 g of RAMEBCD (˜40%). Suspension was agitated at 75 RPM in an isothermal shaker for 40 hours at temperature 30° C.
Solubility of Forskolin in water was determined at the different concentrations of RAMEBCD ranging from 5 to 66%.
A typical aqueous formulation of Forskolin with a cyclodextrin is prepared as follows, RAMEBCD, being used as the example of cyclodextrin RAMEBCD (100 g) is taken in a one liter flask with mechanical or magnetic stirring facility. Forskolin (5.5 g) was charged into the flask. Water (400 ml) is charged to the flask and the contents were agitated at room temperature. A clear solution is obtained. If any undissolved Forskolin particles are seen, they are resuspended and stirred. Benzalkonium chloride (50 mg) and Disodium EDTA (500 mg) are added and dissolved in the flask. The pH of the contents could be adjusted to the desired range with the help of 0.1N sodium hydroxide. (usually pH range 3.5 to 7.5). Calculated amount of sodium chloride solution is added to maintain the osmolarity of the solution equivalent to that of 0.9% sodium chloride. The total volume of the solution is made up to 500 ml after sterile filtration. A solution thus prepared has approximately 1% of Forskolin in the dissolved state. Other cyclodextrins also could be used and depending on the cyclodextrin used, the dissolved content of Forskolin in water differed.
Isoforskolin also could be used in place of Forskolin. In one preparation, Isoforskolin (50 mg) was suspended in water containing a suitable amount of a cyclodextrin, for example, R AMEBCD (20 g) in about 100 ml water.

[2] = 25° C.; cited from earlier work
[3] = test system: Intraocular pressure (IOP), ocular hypertension; experiment: Anti-glaucoma activity: intraocular pressure (IOP) in rabbits with betamethasone-induced ocular hypertension, non-contact tonometer; format: in vivo, Albino rabbit (New Zealand strain); settings: for IOP Readings, right eye (treated): average of 6 determinations
Description: An illustrative example of the biological activity of the preparation is presented. The anti-glaucoma activity of the forskolin composition was studied in albino rabbits. A 1% solution of Forskolin in water as described in example 8 was used for the experiments
Study design: Animal model: Albino rabbit Number of groups: 4 Number of animals in each group: 6 in treatment group and 2 in control group
Materials and methods: Six albino rabbits of New Zealand strain, of both sexes, weighing […] were chosen. The rabbits were housed in clean and well-ventilated open space. Each rabbit was fed with standard diet daily and water was administered ad libitum throughout the study.
Ocular hypertension was induced by the method reported by Bonomi et al (Invest Ophthalmol. 1976 September; 15(9):781-4.) The rabbits were given 0.3 ml subconjunctival injection of Betnesol containing betamethasone sodium 4 mg/ml, every day to each eye for a period of three weeks (the Intraocular pressure (IOP) at third week was maximum as per literature). Local anesthetic propracaine eye drops were used prior to subconjunctival injections.
In each rabbit the left eye was kept as control for glaucoma and the right eye was treated for glaucoma using Forskolin, Timolol, and the placebo.
For each treatment, the IOP readings were measured at intervals of 30 minutes up to 210 minutes using the non-contact tonometer (NCT).

[4] = Determination of the aqueous solubility of Forskolin (intrinsic solubility, HPLC); format: physicochemical
Method: Determination of the aqueous solubility of Forskolin. Forskolin (300 mg) was dried at 105° C. for 6 hours. Dried Forskolin 200 mg was stirred with 100 ml water for 48 hours for the determination of intrinsic solubility at ambient temperatureResulting solution was filtered through 0.45 μm nylon filter and analyzed for the content of Forskolin by HPLC.

[5] = Dissolution in water of Forskolin-RAMEBCD residue obtained by evaporating acetone; format: physicochemical; settings: Forskolin 50 mg + RAMEBCD 1 gram from acetone, residue in 5 ml water
Method: Alternatively, the cyclodextrin and Forskolin in certain proportions are dissolved in a suitable solvent such as ethanol or acetone or ethyl acetate. The solvent is removed to leave behind a white powder. Such powder freely dissolves in water as the examples will illustrate. Further, additives to the aqueous solution of Forskolin can also be added. These additives are usually used for maintaining sterility, pH maintenance, maintenance of osmolarity etc.
Forskolin (50 mg) was dissolved in 5 ml acetone, and 1 gram of RAMEBCD was dissolved in 5 ml acetone separately. Both the solutions were mixed together and solvent acetone was evaporated under reduced pressure. Residue was dried and dissolved in 5 ml water. This residue dissolved very easily within 1 hour of stirring forming a clear colorless solution.

[6] = polyvinylpyrrolidone and polyethyleneglycol-glyceryl tririicinoleate, U.S. Pat. No. 6,346,273; cited from earlier work

| SMILES | IOP Readings, right eye (treated) ([3]; time 0 mins) | IOP Readings, right eye (treated) ([3]; time 30 mins) | IOP Readings, right eye (treated) ([3]; time 60 mins) | IOP Readings, right eye (treated) ([3]; time 90 mins) | IOP Readings, right eye (treated) ([3]; time 120 mins) | IOP Readings, right eye (treated) ([3]; time 150 mins) | IOP Readings, right eye (treated) ([3]; time 180 mins) | IOP Readings, right eye (treated) ([3]; time 210 mins) | further results |
| --- | --- | --- | --- | --- | --- | --- | --- | --- | --- |
| C=C[C@@]1(C)CC(=O)[C@@]2(O)[C@](C)(O1)[C@@H](O)[C@@H](OC(C)=O)C1C(C)(C)CC[C@H](O)[C@@]12C (some centres unmarked) [Isoforskolin] |  |  |  |  |  |  |  |  | Isoforskolin present in filtered solution by HPLC ([1]; RAMEBCD (20 g) in about 100 ml water, room temperature): approximately 0.5% |
| OC[C@H]1O[C@@H]2O[C@H]3[C@H](O)[C@@H](O)[C@@H](O[C@H]4[C@H](O)[C@@H](O)[C@@H](O[C@H]5[C@H](O)[C@@H](O)[C@@H](O[C@H]6[C@H](O)[C@@H](O)[C@@H](O[C@H]7[C@H](O)[C@@H](O)[C@@H](O[C@H]8[C@H](O)[C@@H](O)[C@@H](O[C@H]9[C@H](O)[C@@H](O)[C@@H](O[C@H]%10[C@H](O)[C@@H](O)[C@@H](O[C@H]1[C@H](O)[C@H]2O)O[C@@H]%10CO)O[C@@H]9CO)O[C@@H]8CO)O[C@@H]7CO)O[C@@H]6CO)O[C@@H]5CO)O[C@@H]4CO)O[C@@H]3CO [δ-cyclodextrin] |  |  |  |  |  |  |  |  | Water solubility [2]: 8.19 g/100 ml |
| CC(C)(C)NC[C@H](O)COc1nsnc1N1CCOCC1 [Timolol] | 13 mmHg | 8 mmHg | 7 mmHg | 5 mmHg | 4 mmHg | 3.5 mmHg | 4.5 mmHg | 6 mmHg |  |
| C=C[C@@]1(C)CC(=O)[C@]2(O)[C@@]3(C)[C@@H](O)CCC(C)(C)[C@@H]3[C@H](O)[C@H](OC(C)=O)[C@@]2(C)O1 [Forskolin] | 14 mmHg | 7 mmHg | 6.5 mmHg | 4.5 mmHg | 5 mmHg | 6 mmHg | 7 mmHg | 7.5 mmHg | Concentration of Forskolin solution in water in the absence of cyclodextrin ([4]; no cyclodextrin): about 0.001%; Content of Forskolin by HPLC (intrinsic solubility in water) ([4]; stirred 48 hours, ambient temperature, 0.45 μm filtered): 0.001 % w/v; solubility at 48 h ([4]; thermodynamic from solid, water, stirred 48 hours, ambient temperature, 0.45 μm filtered, read-out: Content of Forskolin by HPLC (intrinsic solubility in water)): 10 µg/mL (≈ 24.4 µM); % Forskolin w/v (solubility in water) ([1]; 5% RAMEBCD): 0.09 % w/v; % Forskolin w/v (solubility in water) ([1]; 10% RAMEBCD): 0.272 % w/v; % Forskolin w/v (solubility in water) ([1]; 15% RAMEBCD): 0.767 % w/v; % Forskolin w/v (solubility in water) ([1]; 20% RAMEBCD): 1.15 % w/v; % Forskolin w/v (solubility in water) ([1]; 40% RAMEBCD): 2.746 % w/v; % Forskolin w/v (solubility in water) ([1]; 53.28% RAMEBCD): 4.165 % w/v; % Forskolin w/v (solubility in water) ([1]; 66.6% RAMEBCD): 5.029 % w/v; Forskolin in the dissolved state in the aqueous formulation ([1]; Example 8 formulation: RAMEBCD 100 g, Forskolin 5.5 g, made up to 500 ml, room temperature): approximately 1%; Time of stirring for the residue to dissolve in water forming a clear colorless solution [5]: ≤ 1 h; Anti-glaucoma activity (conclusion) ([3]; 1% solution of Forskolin in water as in example 8): anti-glaucoma activity comparable to Timolol; Maximum solubility of Forskolin achieved [6]: 0.2% |
